Experimental data: patent publication US8168592B2 (Amgen Inc., priority 2005, dated 2012)
Square brackets hold non-standard residues; d marks the D form. Peptide text beside a SMILES is read from it. 1Nal = N[C@@H](Cc1cccc2ccccc12)C(=O)O; hArg = N=C(N)NCCCC[C@H](N)C(=O)O; Cit = NC(=O)NCCC[C@H](N)C(=O)O; Phg = N[C@H](C(=O)O)c1ccccc1

These compounds were tested against T1, CGRP1 receptor (human neuroblastoma cell (SK-N-MC) membrane) (Homo sapiens, UniProt O60894+Q16602) (assay: CGRP1 binding assay (125I-hαCGRP displacement)). Conditions: Table 3A.
T1 construct: human neuroblastoma cell (SK-N-MC) membrane suspension; purchased PerkinElmer; host or cells: SK-N-MC human neuroblastoma cell membranes (endogenous receptor)
Protocol: CGRP1 binding experiments. […] The plates were incubated at room temperature for 2 hour with shaking at 60 rpm, then the contents of each well were filtered over 0.5% polyethyleneimine (PEI)-treated (at least one hour) GF/C 96-well filter plates. The GF/C filter plates were washed 6 times with ice-cold 50 mM Tris, pH 7.5 and dried in an oven at 55 C for 1 hour. The bottoms of the GF/C plates were then sealed, and 40 μl Microscint™ 20 was added to each well, then the tops of the GF/C plates were sealed with TopSeal™-A, a press-on adhesive sealing film, and the GF/C plates were counted with TopCount NXT (Packard). The data were analyzed by using ActivityBase (IDBS) or Prizm (GraphPad) software.

T1 sequence (Q16602 23-461): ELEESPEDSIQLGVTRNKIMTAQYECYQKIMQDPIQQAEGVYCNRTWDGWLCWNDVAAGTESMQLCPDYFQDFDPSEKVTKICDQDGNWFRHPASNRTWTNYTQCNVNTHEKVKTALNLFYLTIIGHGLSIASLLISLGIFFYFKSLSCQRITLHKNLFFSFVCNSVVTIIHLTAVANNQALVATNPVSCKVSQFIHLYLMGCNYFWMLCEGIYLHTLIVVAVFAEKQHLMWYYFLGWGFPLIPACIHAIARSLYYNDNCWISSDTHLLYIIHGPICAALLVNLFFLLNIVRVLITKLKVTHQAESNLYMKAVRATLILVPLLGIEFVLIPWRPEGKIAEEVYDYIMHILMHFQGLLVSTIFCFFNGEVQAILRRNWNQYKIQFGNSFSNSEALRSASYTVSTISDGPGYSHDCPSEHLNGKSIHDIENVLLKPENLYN
T1 sequence (O60894 27-148): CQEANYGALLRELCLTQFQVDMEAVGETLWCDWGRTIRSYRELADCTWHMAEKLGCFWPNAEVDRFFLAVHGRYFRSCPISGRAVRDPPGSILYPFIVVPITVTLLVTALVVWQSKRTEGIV

Ki | Compound
0.64 nM | CC(=O)N[C@@H](Cc1c[nH]c2ccccc12)C(=O)N[C@H](C(=O)N[C@H](C(=O)N[C@@H](Cc1c[nH]cn1)C(=O)N[C@@H](CCCNC(N)=O)C(=O)N[C@@H](CC(C)C)C(=O)N[C@@H](C)C(=O)NCC(=O)N[C@@H](CC(C)C)C(=O)N[C@@H](CC(C)C)C(=O)N[C@@H](CO)C(=O)N[C@@H](CCCNC(N)=O)C(=O)N[C@@H](CO)C(=O)NCC(=O)NCC(=O)N[C@H](C(=O)N[C@H](C(=O)N[C@@H](CCCCNC(=N)N)C(=O)N[C@@H](CCCCN)C(=O)N[C@@H](CC(N)=O)C(=O)N[C@@H](Cc1ccccc1)C(=O)N[C@H](C(=O)N1CCC[C@H]1C(=O)N[C@H](C(=O)N[C@@H](CC(=O)O)C(=O)N[C@H](C(=O)NCC(=O)N1CCC[C@H]1C(=O)N[C@@H](Cc1cccc2ccccc12)C(=O)N[C@@H](C)C(=O)N[C@@H](Cc1ccccc1)C(N)=O)C(C)C)[C@@H](C)O)C(C)C)C(C)C)C(C)C)[C@@H](C)O)C(C)C [compound 674] (Ac-WVTH[Cit]LAGLLS[Cit]SGGVV[hArg]KNFVPTDVGP[1Nal]AF-NH2)
0.53 nM | CC(=O)N[C@@H](Cc1c[nH]c2ccccc12)C(=O)N[C@H](C(=O)N[C@H](C(=O)N[C@@H](Cc1cnc[nH]1)C(=O)N[C@@H](CCCNC(N)=O)C(=O)N[C@@H](CC(C)C)C(=O)N[C@@H](C)C(=O)NCC(=O)N[C@@H](CC(C)C)C(=O)N[C@@H](CC(C)C)C(=O)N[C@@H](CO)C(=O)N[C@@H](CCCNC(N)=O)C(=O)N[C@@H](CO)C(=O)NCC(=O)NCC(=O)N[C@H](C(=O)N[C@H](C(=O)N[C@@H](CCCCNC(=N)N)C(=O)N[C@@H](CCCCN)C(=O)N[C@@H](CC(N)=O)C(=O)N[C@@H](Cc1ccccc1)C(=O)N[C@H](C(=O)N1CCC[C@H]1C(=O)N[C@H](C(=O)N[C@@H](CC(=O)O)C(=O)N[C@H](C(=O)NCC(=O)N1CCC[C@H]1C(=O)N[C@@H](Cc1ccccc1)C(=O)N[C@@H](C)C(=O)N[C@@H](Cc1ccccc1)C(N)=O)C(C)C)[C@@H](C)O)C(C)C)C(C)C)C(C)C)[C@@H](C)O)C(C)C [compound 739]

Same assay, conditions: Table 3B

Ki | Compound
155 nM | 685 (Ac-WVTHRLAGLLSRSGGVVK(20 kDa PEG)NNFVPTDVGPFAF-NH2) [compound 685]
1.33 nM | 686 (Ac-WVTHRLAGLLSRSGGVVK(20 kDa PEG)NNFVPTDVGPFAF-NH2) [compound 686]
0.49 nM | 687 (Ac-WVTHRLAGLLSRSGGVVK(20 kDa PEG)NNFVPTDVGPFAF-NH2) [compound 687]
0.14 nM | CC(C)C[C@H](NC(=O)CNC(=O)[C@H](C)NC(=O)[C@H](CC(C)C)NC(=O)[C@H](CCCNC(=N)N)NC(=O)[C@H](Cc1c[nH]cn1)NC(=O)[C@@H](NC(=O)[C@@H](NC(=O)[C@@H](N)Cc1cccc2ccccc12)C(C)C)[C@@H](C)O)C(=O)N[C@@H](CC(C)C)C(=O)N[C@@H](CO)C(=O)N[C@@H](CCCNC(=N)N)C(=O)N[C@@H](CO)C(=O)NCC(=O)NCC(=O)N[C@H](C(=O)N[C@H](C(=O)N[C@@H](CCCCN)C(=O)N[C@@H](CC(N)=O)C(=O)N[C@@H](CC(N)=O)C(=O)N[C@@H](Cc1ccccc1)C(=O)N[C@H](C(=O)N1CCC[C@H]1C(=O)N[C@H](C(=O)N[C@@H](CC(=O)O)C(=O)N[C@H](C(=O)NCC(=O)N1CCC[C@H]1C(=O)N[C@@H](Cc1ccccc1)C(=O)N[C@@H](C)C(=O)N[C@@H](Cc1ccccc1)C(N)=O)C(C)C)[C@@H](C)O)C(C)C)C(C)C)C(C)C [compound 701] (H-[1Nal]VTHRLAGLLSRSGGVVKNNFVPTDVGPFAF-NH2)
0.19 nM | CC(C)C[C@H](NC(=O)CNC(=O)[C@H](C)NC(=O)[C@H](CC(C)C)NC(=O)[C@H](CCCNC(=N)N)NC(=O)[C@H](Cc1c[nH]cn1)NC(=O)[C@@H](NC(=O)[C@@H](NC(=O)[C@@H](N)c1ccccc1)C(C)C)[C@@H](C)O)C(=O)N[C@@H](CC(C)C)C(=O)N[C@@H](CO)C(=O)N[C@@H](CCCNC(=N)N)C(=O)N[C@@H](CO)C(=O)NCC(=O)NCC(=O)N[C@H](C(=O)N[C@H](C(=O)N[C@@H](CCCCN)C(=O)N[C@@H](CC(N)=O)C(=O)N[C@@H](CC(N)=O)C(=O)N[C@@H](Cc1ccccc1)C(=O)N[C@H](C(=O)N1CCC[C@H]1C(=O)N[C@H](C(=O)N[C@@H](CC(=O)O)C(=O)N[C@H](C(=O)NCC(=O)N1CCC[C@H]1C(=O)N[C@@H](Cc1ccccc1)C(=O)N[C@@H](C)C(=O)N[C@@H](Cc1ccccc1)C(N)=O)C(C)C)[C@@H](C)O)C(C)C)C(C)C)C(C)C [compound 703] (H-[Phg]VTHRLAGLLSRSGGVVKNNFVPTDVGPFAF-NH2)
20.8 nM | CC(=O)NCSC[C@H](NC(=O)[C@@H](NC(=O)[C@H](C)NC(=O)[C@@H](NC(=O)[C@H](CC(=O)O)NC(=O)[C@H](CO)NC(=O)[C@H](C)N)[C@@H](C)O)[C@@H](C)O)C(=O)N[C@H](C(=O)N[C@H](C(=O)N[C@@H](Cc1c[nH]cn1)C(=O)N[C@@H](CCCNC(=N)N)C(=O)N[C@@H](CC(C)C)C(=O)N[C@@H](C)C(=O)NCC(=O)N[C@@H](CC(C)C)C(=O)N[C@@H](CC(C)C)C(=O)N[C@@H](CO)C(=O)N[C@@H](CCCNC(=N)N)C(=O)N[C@@H](CO)C(=O)NCC(=O)NCC(=O)N[C@H](C(=O)N[C@H](C(=O)N[C@@H](CCCCN)C(=O)N[C@@H](CC(N)=O)C(=O)N[C@@H](CC(N)=O)C(=O)N[C@@H](Cc1ccccc1)C(=O)N[C@H](C(=O)N1CCC[C@H]1C(=O)N[C@H](C(=O)N[C@@H](CC(N)=O)C(=O)N[C@H](C(=O)NCC(=O)N[C@@H](CO)C(=O)N[C@@H](CCCCN)C(=O)N[C@@H](C)C(=O)N[C@@H](Cc1ccccc1)C(N)=O)C(C)C)[C@@H](C)O)C(C)C)C(C)C)C(C)C)[C@@H](C)O)C(C)C [compound 707]
12 nM | CC(C)C[C@H](NC(=O)CNC(=O)[C@H](C)NC(=O)[C@H](CC(C)C)NC(=O)[C@H](CCCNC(=N)N)NC(=O)[C@H](Cc1c[nH]cn1)NC(=O)[C@@H](NC(=O)[C@@H](NC(=O)[C@H](CO)NC(=O)[C@@H](NC(=O)[C@H](C)NC(=O)[C@@H](NC(=O)[C@H](CC(=O)O)NC(=O)[C@H](CO)NC(=O)[C@H](C)N)[C@@H](C)O)[C@@H](C)O)C(C)C)[C@@H](C)O)C(=O)N[C@@H](CC(C)C)C(=O)N[C@@H](CO)C(=O)N[C@@H](CCCNC(=N)N)C(=O)N[C@@H](CO)C(=O)NCC(=O)NCC(=O)N[C@H](C(=O)N[C@H](C(=O)N[C@@H](CCCCN)C(=O)N[C@@H](CC(N)=O)C(=O)N[C@@H](CC(N)=O)C(=O)N[C@@H](Cc1ccccc1)C(=O)N[C@H](C(=O)N1CCC[C@H]1C(=O)N[C@H](C(=O)N[C@@H](CC(N)=O)C(=O)N[C@H](C(=O)NCC(=O)N[C@@H](CO)C(=O)N[C@@H](CCCCN)C(=O)N[C@@H](C)C(=O)N[C@@H](Cc1ccccc1)C(N)=O)C(C)C)[C@@H](C)O)C(C)C)C(C)C)C(C)C [compound 709]
> 1000 nM | CC(C)[C@H](NC(=O)[C@@H](N)Cc1ccccc1)C(=O)N1CCC[C@H]1C(=O)N[C@H](C(=O)N[C@@H](CC(=O)O)C(=O)N[C@@H](C(=O)NCC(=O)N1CCC[C@H]1C(=O)N[C@@H](Cc1ccccc1)C(=O)N[C@@H](C)C(=O)N[C@@H](Cc1ccccc1)C(N)=O)C(C)C)[C@@H](C)O [compound 711]
> 1000 nM | CC(C)[C@H](NC(=O)[C@H](CC(=O)O)NC(=O)[C@@H](NC(=O)[C@@H]1CCCN1C(=O)[C@@H](NC(=O)[C@@H](N)Cc1ccccc1)C(C)C)[C@@H](C)O)C(=O)NCC(=O)N1CCC[C@H]1C(=O)N[C@H](Cc1ccccc1)C(=O)N[C@@H](C)C(=O)N[C@@H](Cc1ccccc1)C(N)=O [compound 712]
> 1000 nM | CC(C)[C@H](NC(=O)[C@H](CC(=O)O)NC(=O)[C@@H](NC(=O)[C@@H]1CCCN1C(=O)[C@@H](NC(=O)[C@@H](N)Cc1ccccc1)C(C)C)[C@@H](C)O)C(=O)NCC(=O)N1CCC[C@@H]1C(=O)N[C@@H](Cc1ccccc1)C(=O)N[C@@H](C)C(=O)N[C@@H](Cc1ccccc1)C(N)=O [compound 713]
> 1000 nM | CC(C)[C@H](NC(=O)[C@H](CC(=O)O)NC(=O)[C@@H](NC(=O)[C@@H]1CCCN1C(=O)[C@@H](NC(=O)[C@@H](N)Cc1ccccc1)C(C)C)[C@@H](C)O)C(=O)NCC(=O)N1CCC[C@H]1C(=O)N[C@@H](Cc1ccccc1)C(=O)N[C@H](C)C(=O)N[C@@H](Cc1ccccc1)C(N)=O [compound 715]
> 1000 nM | CC(C)[C@H](NC(=O)[C@@H](CC(=O)O)NC(=O)[C@@H](NC(=O)[C@@H]1CCCN1C(=O)[C@@H](NC(=O)[C@@H](N)Cc1ccccc1)C(C)C)[C@@H](C)O)C(=O)NCC(=O)N1CCC[C@H]1C(=O)N[C@@H](Cc1ccccc1)C(=O)N[C@@H](C)C(=O)N[C@@H](Cc1ccccc1)C(N)=O [compound 719]
> 1000 nM | CC(C)[C@H](NC(=O)[C@H](CC(=O)O)NC(=O)[C@@H](NC(=O)[C@@H]1CCCN1C(=O)[C@@H](NC(=O)[C@@H](N)Cc1ccccc1)C(C)C)[C@@H](C)O)C(=O)NCC(=O)N1CCC[C@H]1C(=O)N[C@@H](Cc1ccccc1)C(=O)N[C@@H](C)C(=O)N[C@H](Cc1ccccc1)C(N)=O [compound 720]
0.06 nM | Ac-WVTHRLAGLLSRSGGVVKNNFVPTDVGPFAF-NH2 [compound 5]
0.08 nM | Ac-WVTHRLAGLLSRSGGVVKNNFVPTDVGPFAF-NH2 [compound 684]
0.58 nM | Ac-WVTHRLAGLLSRSGGVVRCNFVPTDVGPFAF-NH2 [compound 680]
> 1000 nM | H-FVPTDVAPFAF-NH2 [compound 717]

Each compound was assayed against T2, CGRP1 receptor (Homo sapiens, UniProt O60894+Q16602) (assay: in vitro CGRP1 receptor mediated cAMP assay in SK-N-MC cells). Conditions: Table 2A; read-out: IC50.
T2 construct: SK-N-MC cells express CRLR and RAMP1, which form CGRP1 receptor; endogenous in cells; host or cells: SK-N-MC human neuroblastoma cells
Format: cell-based
In short: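 Human SK-N-MC neuroblastoma cells, which endogenously express CRLR/RAMP1, were plated two days before assay and preincubated in plasma-free medium for 15 minutes at room temperature. Cells were then lysed for 30 minutes at 37° C, and cAMP in the lysates was quantified by competitive cAMP-AP chemiluminescent ELISA.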

T2 sequence (Q16602 23-461): as the sequence (Q16602 23-461) above
T2 sequence (O60894 27-148): as the sequence (O60894 27-148) above

IC50 | Compound
1.31 to 1.51 nM | CC(=O)N[C@@H](Cc1c[nH]c2ccccc12)C(=O)N[C@H](C(=O)N[C@H](C(=O)N[C@@H](Cc1c[nH]cn1)C(=O)N[C@@H](CCCNC(N)=O)C(=O)N[C@@H](CC(C)C)C(=O)N[C@@H](C)C(=O)NCC(=O)N[C@@H](CC(C)C)C(=O)N[C@@H](CC(C)C)C(=O)N[C@@H](CO)C(=O)N[C@@H](CCCNC(N)=O)C(=O)N[C@@H](CO)C(=O)NCC(=O)NCC(=O)N[C@H](C(=O)N[C@H](C(=O)N[C@@H](CCCCNC(=N)N)C(=O)N[C@@H](CCCCN)C(=O)N[C@@H](CC(N)=O)C(=O)N[C@@H](Cc1ccccc1)C(=O)N[C@H](C(=O)N1CCC[C@H]1C(=O)N[C@H](C(=O)N[C@@H](CC(=O)O)C(=O)N[C@H](C(=O)NCC(=O)N1CCC[C@H]1C(=O)N[C@@H](Cc1cccc2ccccc12)C(=O)N[C@@H](C)C(=O)N[C@@H](Cc1ccccc1)C(N)=O)C(C)C)[C@@H](C)O)C(C)C)C(C)C)C(C)C)[C@@H](C)O)C(C)C [compound 674] (Ac-WVTH[Cit]LAGLLS[Cit]SGGVV[hArg]KNFVPTDVGP[1Nal]AF-NH2)

Same assay, conditions: Table 3; unconjugated CGRP peptide analogs; n = 2-4; read-out: IC50

IC50 | Compound
0.14 nM | Ac-WVTHRLAGLLSRSGGVVKNNFVPTDVGPFAF-NH2 [compound 5]

Same assay, conditions: Table 4; 20 k PEG-conjugated vs unconjugated peptides; n = 2-4; read-out: IC50

IC50 | Compound
0.14 nM | Ac-WVTHRLAGLLSRSGGVVKNNFVPTDVGPFAF-NH2 [compound 5]
